Measured values from patent US8293777B2, “Angiotensin II receptor antagonists” (Merck Sharp & Dohme, Corp., priority 2008, dated 2012).

Experiments:
[1] = system: conscious telemetered dogs; assay: Systolic blood pressure lowering, oral administration to conscious telemetered dogs; assay type: in vivo; details: orally administered at 3 mpk
Source text: Several examples were studied for systolic blood pressure lowering when orally administered to conscious telemetered dogs at 3 mpk (see Data Table 1).

[2] = system: isolated rabbit thoracic aorta preparations; assay: Vessel relaxation in isolated rabbit thoracic aorta preparations; assay type: cell-based; details: Oryctolagus cuniculus; rabbit aortic rings precontracted with noradrenaline, functional endothelium
Procedure: The ability of the compounds to induce vasorelaxation was tested in vitro in isolated rabbit thoracic aorta preparations (Wanstall J. C. et al., Br. J. Pharmacol., 134:463-472, 2001). Male New Zealand rabbits were anaesthetized with thiopental-Na (50 mg/kg, iv), sacrificed by exsanguinations and then the thorax was opened and the aorta dissected. Aortic ring preparations (4 mm in length) were set up in physiological salt solution (PSS) at 37° C. in small organ chambers (5 ml). The composition of PSS was (mM): NaCl 130, NaHCO3 14.9, KH2PO4 1.2, MgSO4 1.2, HEPES 10, CaCl2, ascorbic acid […] and glucose 1.1 (95% O2/5% CO2; pH 7.4). Each ring was mounted under 2 g passive tension. Isometric tension was recorded with a Grass transducer (Grass FT03) attached to a BIOPAC MP150 System. Preparations were allowed to equilibrate for 1 h, and then contracted submaximally with noradrenaline (NA, 1 μM) and, when the contraction was stable, acetylcholine (ACh, 10 μM) was added. A relaxant response to ACh indicated the presence of a functional endothelium. […] When a stable precontraction was reached, a cumulative concentration-response curve to either of the vasorelaxant agents was obtained in the presence of a functional endothelium. Each arterial ring was exposed to only one combination of inhibitor and vasorelaxant. […]
Example 2 was evaluated for vessel relaxation.

Compound	Approximate change in systolic blood pressure ([1]; 1-6 h, 3 mg/kg) [mm Hg]	Approximate change in systolic blood pressure ([1]; 6-12 h, 3 mg/kg) [mm Hg]	Approximate change in systolic blood pressure ([1]; 12-18 h, 3 mg/kg) [mm Hg]	EC50 [2] [µM]	Approximate change in systolic blood pressure ([1]; 1-6 h) [mm Hg]	Approximate change in systolic blood pressure ([1]; 6-12 h) [mm Hg]	Approximate change in systolic blood pressure ([1]; 12-18 h) [mm Hg]
CCOc1nc2cccc(C(=O)OC(C)OC(=O)[C@@H]3C[C@H](OC)[C@@H](O[N+](=O)[O-])C3)c2n1Cc1ccc(-c2ccccc2-c2nnn[nH]2)cc1 (stereo partly drawn) [Example 2, D1, 1-({[(1R,3S,4S)-3-methoxy-4-(nitrooxy)cyclopentyl]carbonyl}oxy)ethyl 2-ethoxy-1-{[2′-(1H-tetrazol-5-yl)biphenyl-4-yl]methyl}-1H-benzimidazole-7-carboxylate]	−15	−11	−1				
CCOc1nc2cccc(C(=O)OC(C)OC(=O)[C@@H]3C[C@H](OC)[C@@H](O[N+](=O)[O-])C3)c2n1Cc1ccc(-c2ccccc2-c2nnn[nH]2)cc1 (stereo partly drawn) [Example 2, D2, 1-({[(1R,3S,4S)-3-methoxy-4-(nitrooxy)cyclopentyl]carbonyl}oxy)ethyl 2-ethoxy-1-{[2′-(1H-tetrazol-5-yl)biphenyl-4-yl]methyl}-1H-benzimidazole-7-carboxylate]	−19	−12	−5	> 25			
CCCCC(=O)N(Cc1ccc(-c2ccccc2-c2nnn[nH]2)cc1)[C@H](C(=O)O[C@@H](C)OC(=O)[C@@H]1C[C@H](OC)[C@@H](O[N+](=O)[O-])C1)C(C)C [Example 5, (1S)-1-({[(1R,3S,4S)-3-methoxy-4-(nitrooxy)cyclopentyl]carbonyl}oxy)ethyl N-pentanoyl-N-{[2′-(1H-tetrazol-5-yl)biphenyl-4-yl]methyl}-L-valinate]					−8	−2	8
CCCCc1nc(Cl)c(C(=O)O[C@H](C)OC(=O)[C@@H]2C[C@H](OC)[C@@H](O[N+](=O)[O-])C2)n1Cc1ccc(-c2ccccc2-c2nnn[nH]2)cc1 [Example 7]					−9	−1	2
